Source: patent US20100099561A1, “HETEROBICYCLIC ALKYLTHIO-BRIDGED ISOXAZOLINES” (E.I. DU PONT DE NEMOURS AND COMPANY, priority 2008, published 2010)

Tests used:
Assay type in all cases: in vivo
[1] = system: barnyardgrass (Echinochloa crus-galli); assay: Test A preemergence, barnyardgrass; details: 0 to 100 scale (0 no effect, 100 complete control)
In short: (§1)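 Sow seeds in loam–sand blend; spray soil directly (pre) and treat emerged one- to two-leaf plants 2–10 cm tall (post) with compound in surfactant-containing non-phytotoxic solvent. Keep in greenhouse about ten days. Score injury visually against controls from 0 to 100.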

[2] = system: large crabgrass (Digitaria sanguinalis); assay: Test A preemergence, large crabgrass; details: 0 to 100 scale (0 no effect, 100 complete control)
In short: as §1

[3] = system: giant foxtail (Setaria faberi); assay: Test A preemergence, giant foxtail; details: 0 to 100 scale (0 no effect, 100 complete control)
In short: as §1

[4] = system: morningglory (Ipomoea spp.); assay: Test A preemergence, morningglory; details: 0 to 100 scale (0 no effect, 100 complete control)
In short: as §1

[5] = system: pigweed (Amaranthus retroflexus); assay: Test A preemergence, pigweed; details: 0 to 100 scale (0 no effect, 100 complete control)
In short: as §1

[6] = system: velvetleaf (Abutilon theophrasti); assay: Test A preemergence, velvetleaf; details: 0 to 100 scale (0 no effect, 100 complete control)
In short: as §1

[7] = system: wheat (Triticum aestivum); assay: Test A preemergence, wheat; details: 0 to 100 scale (0 no effect, 100 complete control)
In short: as §1

[8] = system: corn (Zea mays); assay: Test A preemergence, corn; details: 0 to 100 scale (0 no effect, 100 complete control)
In short: as §1

[9] = system: barnyardgrass (Echinochloa crus-galli); assay: Test A postemergence, barnyardgrass; details: 0 to 100 scale (0 no effect, 100 complete control)
In short: as §1

[10] = system: large crabgrass (Digitaria sanguinalis); assay: Test A postemergence, large crabgrass; details: 0 to 100 scale (0 no effect, 100 complete control)
In short: as §1

[11] = system: giant foxtail (Setaria faberi); assay: Test A postemergence, giant foxtail; details: 0 to 100 scale (0 no effect, 100 complete control)
In short: as §1

[12] = system: morningglory (Ipomoea spp.); assay: Test A postemergence, morningglory; details: 0 to 100 scale (0 no effect, 100 complete control)
In short: as §1

[13] = system: pigweed (Amaranthus retroflexus); assay: Test A postemergence, pigweed; details: 0 to 100 scale (0 no effect, 100 complete control)
In short: as §1

[14] = system: velvetleaf (Abutilon theophrasti); assay: Test A postemergence, velvetleaf; details: 0 to 100 scale (0 no effect, 100 complete control)
In short: as §1

[15] = system: wheat (Triticum aestivum); assay: Test A postemergence, wheat; details: 0 to 100 scale (0 no effect, 100 complete control)
In short: as §1

[16] = system: corn (Zea mays); assay: Test A postemergence, corn; details: 0 to 100 scale (0 no effect, 100 complete control)
In short: as §1

[17] = system: rice (Oryza sativa); assay: Test B flooded paddy test, rice; details: Flood, scale 0 to 100
In short: (§2)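 Compounds were added directly to paddy water over 2-leaf-stage plants in pots flooded 3 cm above soil, water depth maintained. Visual injury scored against controls after 13 to 15 days in greenhouse, 0 (none) to 100 (complete control); dash indicates no result.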

[18] = system: umbrella sedge (Cyperus difformis); assay: Test B flooded paddy test, umbrella sedge; details: Flood, scale 0 to 100
In short: as §2

[19] = system: ducksalad (Heteranthera limosa); assay: Test B flooded paddy test, ducksalad; details: Flood, scale 0 to 100
In short: as §2

[20] = system: barnyardgrass (Echinochloa crus-galli); assay: Test B flooded paddy test, barnyardgrass; details: Flood
In short: as §2

[21] = 250 g ai/ha, scale 0 to 100 (0 no effect, 100 complete control)

CC1(C)CC([S+]([O-])Cc2c(C(F)(F)F)nc3n(c2=O)CCCO3)=NO1 (stereo not shown) [Compound 3]
60: Plant response rating, Barnyardgrass ([1]; 500 g ai/ha) | Plant response rating, Pigweed ([5]; 500 g ai/ha)
30: Plant response rating, Barnyardgrass ([1]; 125 g ai/ha) | Plant response rating, Pigweed ([13]; 500 g ai/ha)
70: Plant response rating, Crabgrass, Large ([2]; 500 g ai/ha) | Plant response rating, Foxtail, Giant ([3]; 500 g ai/ha)
0: Plant response rating, Morningglory ([4]; 125 g ai/ha) | Plant response rating, Morningglory ([4]; 500 g ai/ha) | Plant response rating, Velvetleaf ([6]; 125 g ai/ha) | Plant response rating, Velvetleaf ([6]; 500 g ai/ha) | Plant response rating, Wheat ([7]; 125 g ai/ha) | Plant response rating, Wheat ([7]; 500 g ai/ha) | Plant response rating, Corn ([8]; 125 g ai/ha) | Plant response rating, Corn ([8]; 500 g ai/ha) | Plant response rating, Barnyardgrass ([9]; 125 g ai/ha) | Plant response rating, Foxtail, Giant ([11]; 125 g ai/ha) | Plant response rating, Morningglory ([12]; 125 g ai/ha) | Plant response rating, Morningglory ([12]; 500 g ai/ha) | Plant response rating, Pigweed ([13]; 125 g ai/ha) | Plant response rating, Wheat ([15]; 125 g ai/ha) | Plant response rating, Wheat ([15]; 500 g ai/ha) | Plant response rating, Corn ([16]; 125 g ai/ha) | Plant response rating, Corn ([16]; 500 g ai/ha) | Plant response rating, Rice ([17]; 62 g ai/ha) | Plant response rating, Rice ([17]; 250 g ai/ha) | Plant response rating, Sedge, Umbrella ([18]; 62 g ai/ha) | Plant response rating, Sedge, Umbrella ([18]; 250 g ai/ha) | Plant response rating, Ducksalad ([19]; 62 g ai/ha) | Plant response rating, Barnyardgrass ([20]; 62 g ai/ha, scale 0 to 100) | Plant response rating, Barnyardgrass [20, 21]
20: Plant response rating, Crabgrass, Large ([10]; 125 g ai/ha) | Plant response rating, Velvetleaf ([14]; 125 g ai/ha)
40: Plant response rating, Foxtail, Giant ([3]; 125 g ai/ha) | Plant response rating, Pigweed ([5]; 125 g ai/ha) | Plant response rating, Ducksalad ([19]; 250 g ai/ha)
50: Plant response rating, Crabgrass, Large ([2]; 125 g ai/ha) | Plant response rating, Barnyardgrass ([9]; 500 g ai/ha) | Plant response rating, Crabgrass, Large ([10]; 500 g ai/ha) | Plant response rating, Foxtail, Giant ([11]; 500 g ai/ha) | Plant response rating, Velvetleaf ([14]; 500 g ai/ha)

CC1(C)CC([S+]([O-])Cc2c(C(F)(F)Cl)nc3n(c2=O)CCC3)=NO1 (stereo not shown) [Compound 17]
40: Plant response rating, Crabgrass, Large ([2]; 125 g ai/ha)
0: Plant response rating, Morningglory ([4]; 125 g ai/ha) | Plant response rating, Morningglory ([4]; 500 g ai/ha) | Plant response rating, Pigweed ([5]; 125 g ai/ha) | Plant response rating, Pigweed ([5]; 500 g ai/ha) | Plant response rating, Velvetleaf ([6]; 125 g ai/ha) | Plant response rating, Velvetleaf ([6]; 500 g ai/ha) | Plant response rating, Wheat ([7]; 125 g ai/ha) | Plant response rating, Wheat ([7]; 500 g ai/ha) | Plant response rating, Corn ([8]; 125 g ai/ha) | Plant response rating, Corn ([8]; 500 g ai/ha) | Plant response rating, Barnyardgrass ([9]; 125 g ai/ha) | Plant response rating, Morningglory ([12]; 125 g ai/ha) | Plant response rating, Morningglory ([12]; 500 g ai/ha) | Plant response rating, Pigweed ([13]; 125 g ai/ha) | Plant response rating, Velvetleaf ([14]; 125 g ai/ha) | Plant response rating, Wheat ([15]; 125 g ai/ha) | Plant response rating, Corn ([16]; 125 g ai/ha) | Plant response rating, Corn ([16]; 500 g ai/ha) | Plant response rating, Rice ([17]; 31 g ai/ha) | Plant response rating, Rice ([17]; 62 g ai/ha) | Plant response rating, Rice ([17]; 125 g ai/ha) | Plant response rating, Rice ([17]; 250 g ai/ha) | Plant response rating, Sedge, Umbrella ([18]; 31 g ai/ha) | Plant response rating, Sedge, Umbrella ([18]; 62 g ai/ha) | Plant response rating, Sedge, Umbrella ([18]; 125 g ai/ha) | Plant response rating, Sedge, Umbrella ([18]; 250 g ai/ha) | Plant response rating, Ducksalad ([19]; 31 g ai/ha) | Plant response rating, Ducksalad ([19]; 62 g ai/ha) | Plant response rating, Ducksalad ([19]; 125 g ai/ha) | Plant response rating, Ducksalad ([19]; 250 g ai/ha) | Plant response rating, Barnyardgrass ([20]; 31 g ai/ha, scale 0 to 100) | Plant response rating, Barnyardgrass ([20]; 62 g ai/ha, scale 0 to 100) | Plant response rating, Barnyardgrass ([20]; 125 g ai/ha, scale 0 to 100) | Plant response rating, Barnyardgrass [20, 21]
50: Plant response rating, Crabgrass, Large ([10]; 500 g ai/ha)
20: Plant response rating, Barnyardgrass ([1]; 125 g ai/ha) | Plant response rating, Crabgrass, Large ([10]; 125 g ai/ha) | Plant response rating, Wheat ([15]; 500 g ai/ha)
30: Plant response rating, Foxtail, Giant ([3]; 125 g ai/ha) | Plant response rating, Foxtail, Giant ([11]; 125 g ai/ha)
60: Plant response rating, Barnyardgrass ([1]; 500 g ai/ha) | Plant response rating, Barnyardgrass ([9]; 500 g ai/ha) | Plant response rating, Foxtail, Giant ([11]; 500 g ai/ha)
10: Plant response rating, Pigweed ([13]; 500 g ai/ha) | Plant response rating, Velvetleaf ([14]; 500 g ai/ha)
80: Plant response rating, Crabgrass, Large ([2]; 500 g ai/ha) | Plant response rating, Foxtail, Giant ([3]; 500 g ai/ha)
